From PMC6458995, “MAP4K4 Inhibition Promotes Survival of Human Stem Cell-Derived Cardiomyocytes and Reduces Infarct Size In Vivo” (Cell Stem Cell, 2019)

Experiments:
GSK3β = GSK3β (Homo sapiens, UniProt P49841); test: HTRF Transcreener ADP kinase assay; assay type: biochemical; conditions: for IC50: HTRF Transcreener ADP assay
Procedure: (§1) MAP4K4 kinase activity was monitored using the CisBio HTRF Transcreener ADP assay, a competitive immunoassay with a reproducible Z’ > 0.6. In the detection step, endogenous ADP and d2-labeled ADP compete for binding an anti-ADP monoclonal antibody labeled with Eu^3+ cryptate. A ratiometric fluorescent readout is used at 665 and 620 nm. […] Assays were run in Greiner low volume plates with a final reaction volume of 10 μl. Percent inhibition was calculated from 100% activity of MAP4K4 (DMSO only) and 0% activity (no enzyme added). Data were either reported as % inhibition at a single dose or as pIC50 values derived from dose response curves (pIC50 = -log[IC50]).
(§2) Kinase selectivity profiling was performed by the International Centre for Kinase Profiling, MRC Protein Phosphorylation and Ubiquitylation Unit (141 kinases; Premier Screen, http://www.kinase-screen.mrc.ac.uk), using a [γ-^33P]ATP filter binding assay ([Bain et al., 2007]). Compounds were screened at 1 μM. For key hits, pIC50 values were then determined by HTRF as above. More complete kinome profiling was performed by Reaction Biology (376 kinases). Stability in mouse and human liver microsomes was determined by Cyprotex.

KHS/MAP4K5 = KHS/MAP4K5 (Homo sapiens, UniProt Q9Y4K4); test: HTRF Transcreener ADP kinase assay; assay type: biochemical; conditions: for IC50: HTRF Transcreener ADP assay
Sequence of KHS/MAP4K5 (Q9Y4K4 whole entry): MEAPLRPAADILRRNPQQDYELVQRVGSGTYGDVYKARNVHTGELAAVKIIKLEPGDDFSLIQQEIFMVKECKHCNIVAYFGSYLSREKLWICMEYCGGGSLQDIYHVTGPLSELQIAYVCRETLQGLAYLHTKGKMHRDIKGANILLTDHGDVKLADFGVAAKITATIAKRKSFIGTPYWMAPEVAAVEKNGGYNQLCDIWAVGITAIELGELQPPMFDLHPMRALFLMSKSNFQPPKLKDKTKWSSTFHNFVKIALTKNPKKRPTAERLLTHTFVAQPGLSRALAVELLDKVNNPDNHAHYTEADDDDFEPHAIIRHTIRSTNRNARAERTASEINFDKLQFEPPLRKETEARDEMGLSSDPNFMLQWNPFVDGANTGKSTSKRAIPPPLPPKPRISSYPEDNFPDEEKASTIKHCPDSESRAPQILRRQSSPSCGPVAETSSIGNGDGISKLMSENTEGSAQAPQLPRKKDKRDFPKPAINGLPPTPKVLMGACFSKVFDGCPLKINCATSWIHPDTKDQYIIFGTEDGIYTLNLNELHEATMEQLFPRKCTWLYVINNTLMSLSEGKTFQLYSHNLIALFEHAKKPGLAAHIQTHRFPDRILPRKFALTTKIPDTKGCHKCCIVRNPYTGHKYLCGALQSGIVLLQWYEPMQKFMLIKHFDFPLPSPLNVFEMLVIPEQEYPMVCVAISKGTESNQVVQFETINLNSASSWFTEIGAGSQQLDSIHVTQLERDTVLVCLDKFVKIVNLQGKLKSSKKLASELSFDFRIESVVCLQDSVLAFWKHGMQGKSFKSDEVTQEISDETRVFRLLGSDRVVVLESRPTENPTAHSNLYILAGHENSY
Procedure: as §1, §2

vCor.4U cardiomyocytes [1] = test: CellTiter-Glo viability after oxidative stress (H2O2 or menadione); assay type: cell-based, human; conditions: for protection from death signal (CellTiter-Glo): vCor.4U, 10 μM compound, up to 200 μM H2O2 or 45 μM menadione
Procedure: vCor.4U cardiomyocytes were cultured, except where noted, on white (viability) or black (FLIPR) clear-bottom 384-well plates, treated for 1 hr with […] fibronectin (Sigma-Aldrich). To minimize batch to batch variation, thawed cells first were transferred from cryo-vials into sterile 250 mL flasks containing pre-warmed vCor.4U maintenance medium, for 3-5 d. The cells were then plated at 1000 well^-1 for viability assays or 5000 cells well^-1 for FLIPR experiments, all in 40 μl well^-1 of the maintenance medium. Cells were cultured in Axiogenesis complete medium followed by incomplete medium, were subjected to oxidative stress ± test compounds on day 3, and were assayed on day 4 (Figures 4D and 4E). Alternatively, complete medium was replaced on day 2 of culture with 40 μl of DMEM high Glucose (no FCS or pyruvate), followed by removal and replacement of 20 μl every 2 d for 10 d (Figures 4A–4C).
H2O2, menadione (Sigma-Aldrich), doxorubicin (Calbiochem), and C2-ceramide (N-acetyl-D-sphingosine) were used at the indicated concentrations. MAP4K4 inhibitors were serially diluted in DMSO, transferred to an intermediate plate using assay medium as a diluting agent, and added at a final concentration of 0.1% DMSO. MAP4K4 inhibitors were added to cultured cardiomyocytes 1 hr before the cell death inducers, except where noted, and remained present for the duration of the experiment.
(§3) For cell-based dose-response experiments, MAP4K4 inhibitors were prepared in 96-well polypropylene plates as serial dilutions in DMSO of 10 mM stock solutions. To a sterile 96-well intermediate plate, 1 μl of each well was added to 99 μl of medium, the samples were mixed, and 5 μl well^-1 from the intermediate plate were transferred to the cultured cells (final concentration, 0.1% DMSO; final top concentration of inhibitor, 10 μM). Assay plates were gently centrifuged then incubated for 1 hr at 37°C. The death triggers menadione, H2O2 and doxorubicin were prepared fresh on the day of treatment at 10x the final concentrations and 5 μl well^-1 were added as appropriate. Assay plates were gently centrifuged and then incubated at 37°C for the duration of treatment.
Assay plates were removed from the incubator, allowed to reach room temperature, inoculated with 20 μl well^-1 CTG reagent (Promega), and gently agitated for 30 min. Prior to adding CTG, 2 μl well^-1 of the culture medium was removed and placed into a white 384-well low volume plate for measurement of cardiac troponin release by AlphaLISA (below). Luminescence due to ATP, proportional to cell number, was captured on a PHERAstar Plus microplate reader (BMG Labtech). Normalized values were plotted against the log concentration of death signal or inhibitor, and a 4-parameter fit was used to identify IC50 and EC50, respectively.

vCor.4U cardiomyocytes [2] = test: Human cardiac troponin I release (AlphaLISA) after oxidative stress; assay type: cell-based; conditions: 10 μM compound, up to 200 μM H2O2 or 45 μM menadione
Procedure: as §3
Aliquots of medium collected after cells’ treatment with death signals and MAP4K4 inhibitors were incubated at room temperature with AlphaLISA human cardiac troponin I detection reagents (PerkinElmer): sequentially, anti-Troponin I acceptor beads for 1 hr, biotinylated antibody to troponin I for 1hr, and streptavidin (SA)-coated donor beads for 30 min. The AlphaLISA signal was acquired using the Pherastar Plus plate reader. All detection reagents were diluted in 1X AlphaLISA Immunoassay Buffer and a serially diluted analyte standard was used to quantitate the concentration of human cardiac troponin I (pg ml^-1).

Oral PK = assay type: in vivo, female CD-1 mice; conditions: for AUC(0-inf) / Cmax / Tmax / half-life: female, CD-1, mouse, mice, plasma
Procedure: In vivo pharmacokinetic profiling was performed in female CD-1 mice, using 3 animals per time point. First, 30% w/v Kleptose as excipient was dissolved in water and vortexed gently for several min. Next, 30 mg of the test compound was dissolved into 0.6 mL of DMSO, for a concentration of 50 mg ml^-1, and 4.5 mL of the Kleptose solution was added to 0.5 mL of the test compound solution. A precipitate forms, which re-dissolves over 2-5 min, leaving a clear or slightly hazy solution with a final concentration of 5 mg ml^-1. The dosing solution is used as soon as practicable, vortexing immediately prior to use. This amount was sufficient formulation for 25 doses of 200 μL (20 g mouse). Compounds were administered orally at 50 mg kg^-1, with terminal blood (plasma) sampling at 10 min, 30 min, 1 h, 2.5 h, 5 h, 10 h, and 20 h.

Sequence of GSK3β (P49841 whole entry): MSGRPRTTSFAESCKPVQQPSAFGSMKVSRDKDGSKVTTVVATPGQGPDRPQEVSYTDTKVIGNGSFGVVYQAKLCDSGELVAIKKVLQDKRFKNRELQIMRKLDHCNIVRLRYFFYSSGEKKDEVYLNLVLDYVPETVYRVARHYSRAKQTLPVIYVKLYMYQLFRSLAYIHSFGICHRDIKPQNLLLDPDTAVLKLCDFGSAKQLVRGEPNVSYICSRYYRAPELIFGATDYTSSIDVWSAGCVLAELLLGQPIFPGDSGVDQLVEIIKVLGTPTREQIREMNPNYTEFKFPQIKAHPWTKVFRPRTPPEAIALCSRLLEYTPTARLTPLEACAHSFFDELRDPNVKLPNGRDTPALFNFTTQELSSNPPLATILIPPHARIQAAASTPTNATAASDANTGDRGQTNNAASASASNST

Row | Compound | Fold Selectivity (GSK3β; GSK3β versus MAP4K4) | IC50 (GSK3β; GSK3β) [µM] | DMX-5804 vs F1386-0303 (GSK3β; ratio of fold selectivity, GSK3β) | IC50 (KHS/MAP4K5; KHS/MAP4K5) [µM] | Fold Selectivity (KHS/MAP4K5; KHS/MAP4K5 versus MAP4K4) | DMX-5804 vs F1386-0303 (KHS/MAP4K5; ratio of fold selectivity, KHS/MAP4K5) | protection if given 1 h after oxidative stress (vCor.4U cardiomyocytes [1]; 400 μM H2O2, CellTiter-Glo) | protection from death signal (CellTiter-Glo) (vCor.4U cardiomyocytes [1]) | protection from death signal (human cardiac troponin release) (vCor.4U cardiomyocytes [2]) | improvement of free plasma concentration over the initial inhibitor (Oral PK; 50 mg kg^−1 oral dose, versus F1386-0303) | AUC(0-inf) (Oral PK; Oral PK (50 mg kg^−1)) [µM·h] | Cmax (Oral PK; Oral PK (50 mg kg^−1)) [µM] | Tmax (Oral PK; Oral PK (50 mg kg^−1)) [h] | half-life (Oral PK; Oral PK (50 mg kg^−1)) [h] | AUCinf, DMX-5804 versus F1386-0303 (Oral PK; ratio, Oral PK (50 mg kg^−1)) | Cmax, DMX-5804 versus F1386-0303 (Oral PK; ratio, Oral PK (50 mg kg^−1)) | Tmax, DMX-5804 versus F1386-0303 (Oral PK; ratio, Oral PK (50 mg kg^−1)) | t1/2, DMX-5804 versus F1386-0303 (Oral PK; ratio, Oral PK (50 mg kg^−1))
1 | COCCOc1ccc(-c2cn(-c3ccccc3)c3nc[nH]c(=O)c23)cc1 [DMX-5804, 5-[4-(2-methoxy-ethoxy)-phenyl]-7-phenyl-3,7-dihydro-pyrrolo[2,3-d]pyrimidin-4-one] | 7762 | 21.9 | 10.00 | 0.437 | 153 | 0.88 | partial protection | substantiated | substantiated | more than 80 fold | 63.7 | 13.8 | 1 | 1.8 | 29.48 | 46.94 | 1.00 | 0.49
2 | Oc1ncnc2c1c(-c1ccccc1)cn2-c1ccccc1 [F1386-0303, 5,7-diphenyl-7H-pyrrolo[2,3-d]pyrimidin-4-ol] |  | 26.9 |  | 6.03 |  |  |  | virtually complete | virtually complete |  | 2.16 | 0.295 | 1 | 3.7 |  |  |  | 
